Experimental data from US20250019385A1, “SPIROCYCLIC ANNULATED 2-AMINO-3-CYANO THIOPHENES AND DERIVATIVES FOR THE TREATMENT OF CANCER” (Boehringer Ingelheim International GmbH, priority 2023, published 2025).
In brackets after ≈: the same amount, converted by molar mass. Where two headings read alike, the source gives them in different places.

Assays:
[1] = Solubility measurement (DMSO solution precipitation method); assay type: physicochemical; details: for solubility at 24 h: aqueous buffer, kinetic from dmso stock
Description: A 10 mM DMSO stock solution of a test compound is used to determine its aq. solubility. The DMSO solution is diluted with an aq. medium (McIlvaine buffer with pH=4.5 or 6.8) to a final concentration of 250 μM. After 24 h of shaking at ambient temperature a potentially formed precipitate is removed by filtration. The concentration of the test compound in the filtrate is determined by LC-UV methods by calibrating the signal to the signal of a reference solution with complete dissolution of the test compound in acetonitrile/water (1:1) with known concentration.

NCI-H358 cells = assay: NCI-H358 CTG proliferation assay (120 h) (NSCLC, G12C); assay type: cell-based
Description: (§1) NCI-H358 cells (ATCC No. CRL-5807) are dispensed into black 384-well plates, flat and clear bottom (Greiner, PNr. 781091) at a density of 200 cells per well in 60 μl RPMI-1640 ATCC-Formulation (Gibco #A10491)+10% FCS (fetal calf serum). Cells are incubated overnight at 37° C. in a humidified tissue culture incubator at 5% CO2. Compounds (10 mM stock in DMSO) are added at logarithmic dose series using the ECHO acoustic liquid handler system (Beckman Coulter), normalizing for added DMSO and including DMSO controls. All compound treatments are performed in technical duplicates. For the TO time point measurement, untreated cells are analyzed at the time of compound addition. Plates are incubated for 120 h, and cell viability is measured using CellTiter-Glo luminescent cell viability reagent (Promega product code G7570). Viability (stated as percent of control) is defined as relative luminescence units RLU of each well divided by the RLU of cells in DMSO controls. IC50 values are determined from viability measurements by non-linear regression using a four-parameter model.
(§2) IC50 values of representative compounds according to the invention measured with these assays in the indicated cell lines are presented in Table 46.

Ba/F3 cells KRAS G12V = assay: Ba/F3 proliferation assay (KRAS G12V); assay type: cell-based; details: AlamarBlue viability
Description: Ba/F3 cells are ordered from DSMZ (ACC300, Lot17) and grown in RPMI-1640 (ATCC 30-2001)+10% FCS+10 ng/mL IL-3 at 37° C. in 5% […] atmosphere. Plasmids containing KRASG12 mutants (i.e. […], G12C, G12V) are obtained from GeneScript. To generate KRASG12-dependent Ba/F3 models, Ba/F3 cells are transduced with retroviruses containing vectors that harbor KRASG12 isoforms. Platinum-E cells (Cell Biolabs) are used for retrovirus packaging. Retrovirus is added to Ba/F3 cells. To ensure infection, 4 μg/mL polybrene is added and cells are spinfected. Infection efficiency is confirmed by measuring GFP-positive cells using a cell analyzer. Cells with an infection efficiency of 10% to 20% are further cultivated and puromycin selection with 1 μg/mL is initiated. As a control, parental Ba/F3 cells are used to show selection status. Selection is considered successful when parental Ba/F3 cells cultures died. To evaluate the transforming potential of KRASG12 mutations, the growth medium is no longer supplemented with IL-3. Ba/F3 cells harboring the empty vector are used as a control. Approximately ten days before conducting the experiments, puromycin is left out.
For proliferation assays, Ba/F3 cells are seeded into 384-well plates at 1.5×1 (M cells/60 μL in growth media (RPMI-1640+10% FCS). Compounds (10 mM stock in DMSO) are added at logarithmic dose series using the ECHO acoustic liquid handler system (Beckman Coulter), normalizing for added DMSO and including DMSO controls. All compound treatments are performed in technical duplicates. For the TO time point measurement, untreated cells are analyzed at the time of compound addition. Treated cells are incubated for 72 h at 37° C. with 5% CO2 and cell viability is measured in the PerkinElmer Envision Multimode Reader using AlamarBlue™ (ThermoFisher) viability stain. Viability (stated as percent of control) is defined as relative fluorescence units RFU of each well divided by the RFU of cells in DMSO controls. IC50 values are determined from viability measurements by non-linear regression using a four-parameter model.

NCI-H727 cells = assay: NCI-H727 CTG proliferation assay (120 h) (lung cancer, G12V); assay type: cell-based; details: Homo sapiens
Description: as §1, with “NCI-H727” for “NCI-H358”, “CRL-5815)” for “CRL-5807)”, “500” for “200”, “RPMI” for “RPMI-1640”, “(PAN P04-18047)+10%” for “(Gibco #A10491)+10%”, “serum, HyClone, SH30084.03).” for “serum).”
as §2

[2] = McIlvaine buffer pH 4.5, 24 h, read-out: solubility pH 4.5
[3] = McIlvaine buffer pH 6.8, 24 h, read-out: solubility pH 6.8

| solubility at 24 h [1, 2] [µg/mL] | solubility at 24 h [1, 3] [µg/mL] | IC50 (NCI-H358 cells; Homo sapiens) [nM] | IC50 (Ba/F3 cells KRAS G12V; Mus musculus, BaF3, 72 h) [nM] | IC50 (NCI-H727 cells) [nM] | Compound | solubility pH 4.5 ([1]; McIlvaine buffer pH 4.5, 24 h, from DMSO stock) [μg/ml] | solubility pH 6.8 ([1]; McIlvaine buffer pH 6.8, 24 h, from DMSO stock) [μg/mL] | IC50 (NCI-H358 cells) [nM] | IC50 (Ba/F3 cells KRAS G12V; 72 h) [nM] |
| --- | --- | --- | --- | --- | --- | --- | --- | --- | --- |
| > 142 | 107 (≈ 166 µM) | 1 | – | – | C[C@H](Oc1nc(-c2noc3c2CCC[C@@]32CCCc3sc(N)c(C#N)c32)nc2c1n(C)c(=O)n2[C@H]1CO[C@@H](C)C1)[C@@H]1CCCN1C [II-5] | – | – | – | – |
| 65 (≈ 97.6 µM) | 24 (≈ 36 µM) | 18 | 10 | – | C[C@H](Oc1nc(-c2noc3c2CCC[C@@]32CCCc3sc(N)c(C#N)c32)nc2c1CN(c1ncccn1)[C@]21CCOC1)[C@@H]1CCCN1C [II-7a] | – | – | – | – |
| 62 (≈ 93.1 µM) | 23 (≈ 34.5 µM) | 106 | 37 | – | C[C@H](Oc1nc(-c2noc3c2CCC[C@@]32CCCc3sc(N)c(C#N)c32)nc2c1CN(c1ncccn1)[C@@]21CCOC1)[C@@H]1CCCN1C [II-7b] | – | – | – | – |
| – | – | 5 | 6 | 7 | C[C@H](Oc1nc(-c2noc3c2CCC[C@@]32CCCc3sc(N)c(C#N)c32)nc2c1CCCO[C@]21CCOC1)[C@@H]1CCCN1C [II-10] | – | – | – | – |
| – | – | 1 | 1 | 1 | C[C@H](Oc1nc(-c2noc3c2CCC[C@@]32SCCc3sc(N)c(C#N)c32)nc2c1COC[C@]21CCOC1)[C@@H]1CCCN1C [II-16] | – | – | – | – |
| 89 (≈ 152 µM) | 37 (≈ 63.1 µM) | 43 | 13 | – | C[C@H](Oc1nc(-c2noc3c2CCC[C@@]32CCCc3sc(N)c(C#N)c32)nc2c1CCC21CCOC1)[C@@H]1CCCN1C (stereo partly drawn) [II-18] | – | – | – | – |

More lines, now with the values behind:

| Compound | solubility at 24 h [1, 2] [µg/mL] | solubility at 24 h [1, 3] [µg/mL] | IC50 (NCI-H358 cells; Homo sapiens) [nM] | IC50 (Ba/F3 cells KRAS G12V; Mus musculus, BaF3, 72 h) [nM] | IC50 (NCI-H727 cells) [nM] | solubility pH 4.5 ([1]; McIlvaine buffer pH 4.5, 24 h, from DMSO stock) [μg/ml] | solubility pH 6.8 ([1]; McIlvaine buffer pH 6.8, 24 h, from DMSO stock) [μg/mL] | IC50 (NCI-H358 cells) [nM] | IC50 (Ba/F3 cells KRAS G12V; 72 h) [nM] |
| --- | --- | --- | --- | --- | --- | --- | --- | --- | --- |
| COCCn1c(=O)n([C@@H]2CCOC2)c2nc(-c3onc4c3CCC[C@@]43CCCc4sc(N)c(C#N)c43)nc(O[C@@H](C)[C@@H]3CCCN3C)c21 [I-1] | > 157 | > 155 | 9 | 8 | 10 | – | – | – | – |
| CO[C@H]1C[C@@H]([C@H](C)Oc2nc(-c3onc4c3CCC[C@@]43CCCc4sc(N)c(C#N)c43)nc3c2n(C)c(=O)n3[C@@H]2CCOC2)N(C)C1 [I-2] | > 159 | 115 (≈ 174 µM) | 43 | 21 | 14 | – | – | – | – |
| CO[C@@H]1C[C@@H]([C@H](C)Oc2nc(-c3onc4c3CCC[C@@]43CCCc4sc(N)c(C#N)c43)nc3c2n(C)c(=O)n3[C@@H]2CCOC2)N(C)C1 [I-3] | > 157 | 77 (≈ 117 µM) | 4 | 3 | 5 | – | – | – | – |
| C[C@H](Oc1nc(-c2onc3c2CCC[C@@]32CCCc3sc(N)c(C#N)c32)nc2c1n(C)c(=O)n2[C@@H]1CCOC1)[C@@H]1[C@H](F)CCN1C [I-4] | > 152 | 28 (≈ 43.2 µM) | 107 | 25 | 33 | – | – | – | – |
| C[C@H](Oc1nc(-c2onc3c2CCC[C@@]32CCCc3sc(N)c(C#N)c32)nc2c1n(C)c(=O)n2[C@@H]1CCOC1)[C@@H]1[C@@H](F)CCN1C [I-5] | > 150 | 2 (≈ 3.08 µM) | 54 | 14 | 18 | – | – | – | – |
| CO[C@H]1CCN(C)[C@@H]1[C@H](C)Oc1nc(-c2onc3c2CCC[C@@]32CCCc3sc(N)c(C#N)c32)nc2c1n(C)c(=O)n2[C@@H]1CCCOC1 [I-6] | > 164 | < 1 | 4 | 2 | 3 | – | – | – | – |
| COCCn1c(=O)n(C)c2c(O[C@@H](C)[C@@H]3CCCN3C)nc(-c3onc4c3CCC[C@@]43CCCc4sc(N)c(C#N)c43)nc21 [I-7] | > 150 | > 147 | 124 | 46 | 348 | – | – | – | – |
| C[C@H](Oc1nc(-c2onc3c2CCC[C@@]32CCCc3sc(N)c(C#N)c32)nc2c1[nH]c(=O)n2[C@@H]1CCOC1)[C@@H]1CCCN1C [I-8] | > 147 | > 139 | 9 | 20 | 12 | – | – | – | – |
| C[C@H](Oc1nc(-c2onc3c2CCC[C@@]32CCCc3sc(N)c(C#N)c32)nc2c1n(C)c(=O)n2[C@H]1CCOC1)[C@@H]1CCCN1C [I-9] | > 149 | > 144 | 52 | 20 | 138 | – | – | – | – |
| C[C@H](Oc1nc(-c2onc3c2CCC[C@@]32CCCc3sc(N)c(C#N)c32)nc2c1n(C)c(=O)n2C1CCOCC1)[C@@H]1CCCN1C [I-10] | > 151 | > 148 | 42 | 16 | 108 | – | – | – | – |
| C[C@H](Oc1nc(-c2onc3c2CCC[C@@]32CCCc3sc(N)c(C#N)c32)nc2c1n(C)c(=O)n2[C@H]1CCCOC1)[C@@H]1CCCN1C [I-11] | > 149 | 99 (≈ 154 µM) | 387 | 128 | 497 | – | – | – | – |
| C[C@H](Oc1nc(-c2onc3c2CCC[C@@]32CCCc3sc(N)c(C#N)c32)nc2c1n(C)c(=O)n2[C@@H]1CCCOC1)[C@@H]1CCCN1C [I-12] | > 155 | > 142 | 6 | 2 | 3 | – | – | – | – |
| CCn1c(=O)n([C@@H]2CCCOC2)c2nc(-c3onc4c3CCC[C@@]43CCCc4sc(N)c(C#N)c43)nc(OCC3(CN4CCCC4)CC3)c21 [I-35] | – | – | 232 | 104 | 159 | – | – | – | – |
| C[C@H](Oc1nc(-c2onc3c2CCC[C@@]32CCCc3sc(N)c(C#N)c32)nc2c1n(C)c(=O)n2[C@H]1CO[C@@H](C)C1)[C@@H]1CCCN1C [I-47] | > 132 | 101 (≈ 157 µM) | – | – | – | – | – | – | – |
| C[C@H](Oc1nc(-c2onc3c2CCC[C@@]32CCCc3sc(N)c(C#N)c32)nc2c1n(C)c(=O)n2[C@H]1CO[C@@H](C)C1)[C@@H]1CC[C@H](C)N1C [I-50] | 124 (≈ 188 µM) | 103 (≈ 156 µM) | – | 1 | – | – | – | – | – |
| CO[C@H]1CCN(C)[C@@H]1[C@H](C)Oc1nc(-c2onc3c2CCC[C@@]32CCCc3sc(N)c(C#N)c32)nc2c1n(C)c(=O)n2[C@H]1COC[C@@H](C)C1 [I-51] | > 153 | < 1 | – | 2 | – | – | – | – | – |
| CO[C@@H]1C[C@@H]([C@H](C)Oc2nc(-c3onc4c3CCC[C@@]43CCCc4sc(N)c(C#N)c43)nc3c2n(C)c(=O)n3[C@H]2COC[C@@H](C)C2)N(C)C1 [I-52] | > 153 | < 1 | – | 3 | – | – | – | – | – |
| C[C@H](Oc1nc(-c2noc3c2CCC[C@@]32CCCc3sc(N)c(C#N)c32)nc2c1CC[C@]21CNCCO1)[C@@H]1C[C@@H](F)CN1C [II-20] | – | – | – | – | – | >156 | >156 | 59 | 96 |
